One assay concerns the target T1, LPA5 (Homo sapiens, UniProt Q9H1C0).
T1 construct: FLAG (N); expressed in transfected cells; host or cells: B103 rat neuroblastoma, lentiviral transduction, puromycin selection
Put plainly: LPA receptor-mediated Ca2+ mobilization assay, LPA5. The assay is classed as cell-based. To be noted: agonist. The procedure:
Similarity searches were performed separately using each fingerprint to quantitate similarity. Hits meeting the 80% similarity threshold from each search were ranked based on the Tanimoto coefficient measure of similarity to a target molecule NSC12404, and the top 75 unique hits from each fingerprint search were selected for further analysis. The 225 compounds selected for further analysis were clustered based on Tanimoto coefficients calculated using Molecular ACCess System-key fingerprints (MACCS keys) and evaluated using the diversity subset function implemented in MOE. This selected a diverse subset of 27 compounds for biological evaluation by choosing the middle compounds in each cluster. These 27 compounds were tested in Ca^2+ mobilization assays at a concentration of 10 μM using stable cell lines individually expressing LPA2 and also in vector-transfected control cells. Hits activating LPA2 were further tested using cells expressing the other established and putative LPA GPCRs. […] They arbitrarily selected GRI977143 for further characterization in cell-based assays.
J Biol Chem (2009) 284(25): 17304-17319). […] The cells were loaded with Fura-2-acetoxymethyl esther (Fura-2/AM) in Krebs buffer containing 0.01% pluronic acid for 30 min and rinsed with Krebs buffer before measuring Ca^2+ mobilization. The ratio of peak emissions at 510 nm after 2 min of ligand addition was determined for excitation wavelengths of 340 nm/380 nm. All samples were run in quadruplicate. […] The half maximally effective concentration (EC50), and inhibitory constant (Ki) values were calculated by fitting a sigmoid function to dose-response data points using KaleidaGraph software (version 4.1, Synergy Software; […]).
Mouse embryonic fibroblast (MEF) cells were isolated from E13.5 LPA1&2 double knockout (DKO) embryos. MEFs were transduced with empty vector or LPA2-containing lentiviruses and selected with 1.5 μg/ml puromycin. Cells were maintained in Dulbecco's modified Eagle medium (DMEM) supplemented with 10% (V/V) fetal bovine serum (FBS), 2 mM L-glutamine, 100 U/mL penicillin, and 100 μg/mL streptomycin. Serum-free medium contained 0.1% (W/V) BSA in DMEM. The rat intestinal epithelial cell line 6 (IEC-6) was obtained from the American Type Culture Collection (Rockville, Md.) at passage 13; passages 16-21 were used in all experiments. IEC-6 cells were maintained in a humidified 37° C. incubator in an atmosphere of 90% air and 10% CO2. Growth medium consisted of DMEM supplemented with 5% heat inactivated FBS, 10 μg/mL insulin, and 50 μg/mL gentamycin. The composition of the serum-starvation medium was the same as that of the full growth medium except that it contained no FBS. […]
(In general: Calcium flux is commonly read through the fluorescence of an indicator in the cells.)

For assay [1], the system named is vector- and LPA2-transduced MEF cells. Put plainly: Adriamycin-induced apoptosis, DNA fragmentation ELISA. To be noted: GRI977143 10 μM. The assay is classed as cell-based, mouse. How it is done:
Experiments were performed on vector- and LPA2-transduced MEF cells. To measure caspase 3, 7, 8, or 9 activity and DNA fragmentation, cells were plated in 48-well plates (2×10^4 cells/well). To detect PARP-1 cleavage and Bax translocation, 1.5×10^6 cells were plated in 10-cm dishes and cultured overnight in full growth medium. The next morning, the growth medium was replaced by serum-starvation medium and cells were pretreated for 1 h with LPA (1-10 μM), OTP (1-10 μM), GRI977143 (1-10 μM), or vehicle. Caspase activity, DNA fragmentation, PARP-1 cleavage, and Bax translocation were measured 5 h after incubation with 1.7 μM Adriamycin or 24 h after serum withdrawal.
Apoptotically-challenged cells were washed twice with PBS, and a quantitative DNA fragmentation assay was carried out using a Cell Death Detection ELISA PLUS kit (Roche Diagnostics, Penzberg, Germany) and normalized to protein concentration using the BCA Protein Assay Kit (Thermo Fisher Scientific, Inc.; Rockford, Ill.) as described previously (Valentine et al., 2010). Aliquots of nuclei-free cell lysate were placed in streptavidin-coated wells and incubated with anti-histone-biotin antibody and anti-DNA peroxidase-conjugated antibody for 2 h at room temperature. After the incubation, the sample was removed, and the wells were washed and incubated with 100 μl 2,2′-azino-di[3-ethylbenzthiazolin-sulfonate substrate at room temperature before the absorbance was read at 405 nm. Results were expressed as absorbance at 405 nm/min/mg protein as detailed in our previous report (Ray et al., Mdm2 inhibition induces apoptosis in p53 deficient human colon cancer cells by activating p73- and E2F1-mediated expression of PUMA and Siva-1. Apoptosis (2011) 16(1): 35-44).
Background: ELISA stands for enzyme-linked immunosorbent assay.

The mark [2] stands for this setting: LPA2-transduced MEF, LPA and OTP 3 μM.

As a reminder, the EC50 is the concentration needed to bring the measured effect to its halfway point.

T1 sequence (Q9H1C0 whole entry, species assumed): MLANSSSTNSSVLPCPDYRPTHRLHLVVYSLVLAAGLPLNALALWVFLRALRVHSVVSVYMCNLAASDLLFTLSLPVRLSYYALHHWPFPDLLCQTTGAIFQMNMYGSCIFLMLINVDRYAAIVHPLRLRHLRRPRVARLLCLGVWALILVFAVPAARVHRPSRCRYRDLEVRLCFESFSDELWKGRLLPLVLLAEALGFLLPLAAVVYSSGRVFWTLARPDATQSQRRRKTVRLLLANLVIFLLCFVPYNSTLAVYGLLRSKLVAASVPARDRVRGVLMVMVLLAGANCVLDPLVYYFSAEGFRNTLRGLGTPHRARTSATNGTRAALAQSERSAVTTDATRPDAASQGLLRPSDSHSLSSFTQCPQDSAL

Turning to `O=C(O)c1cc(Cl)c(Cl)cc1C(=O)Nc1ccc2c(c1)C(=O)c1ccccc1-2` [Compound H2L5547924], the EC50 on LPA5 is more than 10 µM.

Regarding `O=C(O)c1ccccc1C(=O)Nc1ccc2c(c1)C(=O)c1ccccc1C2=O` [Compound H2L5828102], the EC50 at LPA5 is more than 10 µM. As for `O=C(O)c1ccccc1SCCCN1C(=O)c2cccc3cccc(c23)C1=O` [GRI977143], the figures for the “reduction of DNA fragmentation” value in assay [1] (setting [2]) and in assay [1] (vector-transduced MEF) were 41±2% and 7±1%, respectively. Regarding `CCCCCCCC/C=C\CCCCCCCC(=O)OC[C@@H](O)COP(=O)(O)O` [LPA 18:1, Lysophosphatidic acid (18:1)], the “reduction of DNA fragmentation” value in assay [1] (setting [2]) amounted to 35±4%. `O=C(O)c1ccccc1C(=O)Nc1ccc2c(c1)C(=O)c1ccccc1-2` [NSC12404]: the EC50 on LPA5 is more than 10 µM. For octadecenyl thiophosphate [OTP], the “reduction of DNA fragmentation” value in assay [1] (setting [2]) is listed as 32±1%. Further, at LPA5, the EC50 stood at 0.003 µM.
